US11413243B2, “Fusogenic compounds for delivery of biologically active molecules” (Nitto Denko Corporation, priority 2017, dated 2022)
Where two headings read alike, the source gives them in different places.

Tested on: HSP47
Conditions: for HSP47 gene expression knockdown compared to control formulation without fusogenic compound: HEDC and S104 liposomes, all concentrations of siRNA
[1] = Table 3, siRNA 18 nM, rat stellate cells
[2] = Table 3, siRNA 75 nM, rat stellate cells
[3] = Table 3, siRNA 300 nM, rat stellate cells
[4] = Table 4, siRNA 18 nM, rat stellate cells
[5] = Table 4, siRNA 75 nM, rat stellate cells
[6] = Table 4, siRNA 300 nM, rat stellate cells

Method: The in vitro activity for gene expression knockdown using an siRNA was measured using rat stellate cells in DMEM medium according to the following protocol: One day before the transfection, plate the cells in a 96-well plate at 3×10^3 cells per well for Stellate cells with 100 μl of medium containing 10% FBS and culture in a 37° C. incubator containing a humidified atmosphere of 5% CO2 in air. Before transfection, change medium to 90 μl of medium without antibiotics. Prepare the appropriate dilutions of the solution collected from the tubing in PBS buffer so that the addition of 10 μl into each well is sufficient to reach the desired concentration. 48 hours after transfection, wash the cells once with ice-cold PBS. Lyse the cells with 50 μl of Cell-to-Ct Lysis Buffer for 5-30 minutes at ambient temperature. Add 5 μl of Stop Solution and incubate for 2 minutes at ambient temperature. Measure mRNA level by qPCR with TAQMAN immediately. Alternatively, the samples can be frozen at −80° C. and assayed at later times. For qRT-PCR assay: Thaw all reagents on ice. Mix the pooled reagents in 0.2 ml PCR tubes. Dispense the set-up mixture into 384 well plate, 10 μl/well×3. Seal the plate with film, spin down mixture into the bottom of wells. Perform qRT-PCR assay.
In this example, an HSP47 siRNA was used to knockdown HSP47 gene. For TaqMan gene expression assays, HSP47 gene specific TaqMan probe was used.

In the case of CCCCC/C=C\C/C=C\CCCCCCCC(=O)OCCN(CCOC(=O)CCCCCCC/C=C\C/C=C\CCCCC)C(=O)CCC(=O)NCCCC[C@H](NC(=O)CCC(=O)N(CCOC(=O)CCCCCCC/C=C\C/C=C\CCCCC)CCOC(=O)CCCCCCC/C=C\C/C=C\CCCCC)C(=O)NCCCOCCOCCOCCCNC(=O)CCOCCOCCOCCOCCOCCC(=O)NCCCOCCOCCOCCCNC(=O)[C@H](CCCCNC(=O)CCC(=O)N(CCOC(=O)CCCCCCC/C=C\C/C=C\CCCCC)CCOC(=O)CCCCCCC/C=C\C/C=C\CCCCC)NC(=O)CCC(=O)N(CCOC(=O)CCCCCCC/C=C\C/C=C\CCCCC)CCOC(=O)CCCCCCC/C=C\C/C=C\CCCCC [Compound R4], the “activity for gene expression knockdown in stellate cells compared to control formulation” value (FIG. 24, Table 6 formulation HEDC:S104:DOPE:CH:DMPE-PEG with 2% (of total lipids) fusogenic compound) is reported as “surprisingly increased”, the “HSP47 gene expression knockdown compared to control formulation without fusogenic compound” value (FIG. 46, fusogenic compound 2% of the total lipids) is reported as “greatly and surprisingly increased” and the “HSP47 gene expression knockdown compared to control formulation without fusogenic compound” value (FIG. 46, fusogenic compound 10% of the total lipids) is reported as “greatly and surprisingly increased”. For the same molecule, the “HSP47 gene expression knockdown compared to control formulation without fusogenic compound” value (FIG. 47, fusogenic compound 2% of the total lipids) was “greatly and surprisingly increased”, the “% of Expression at Dose (nM) 18 nM” value [1] was 16% and the “% of Expression at Dose (nM) 50 nM” value (Table 3, siRNA 50 nM, rat stellate cells, 48 hours after transfection) was 44%. The “% of Expression at Dose (nM) 75 nM” value [2] was 10%, the “% of Expression at Dose (nM) 200 nM” value (Table 3, siRNA 200 nM, rat stellate cells, 48 hours after transfection) was 15% and the “% of Expression at Dose (nM) 300 nM” value [3] was 6%.
With CCCCCCCCCCCCCCCC(=O)OCCN(CCOC(=O)CCCCCCCCCCCCCCC)C(=O)CCCC(=O)NCCCC[C@H](NC(=O)CCCC(=O)N(CCOC(=O)CCCCCCCCCCCCCCC)CCOC(=O)CCCCCCCCCCCCCCC)C(=O)NCCCOCCOCCOCCCNC(=O)CCOCCOCCOCCOCCOCCC(=O)NCCCOCCOCCOCCCNC(=O)[C@H](CCCCNC(=O)CCCC(=O)N(CCOC(=O)CCCCCCCCCCCCCCC)CCOC(=O)CCCCCCCCCCCCCCC)NC(=O)CCCC(=O)N(CCOC(=O)CCCCCCCCCCCCCCC)CCOC(=O)CCCCCCCCCCCCCCC [Compound S6] the “% of Expression at Dose (nM) 18 nM” value [1] was 97%, the “% of Expression at Dose (nM) 75 nM” value [2] was 80% and the “% of Expression at Dose (nM) 300 nM” value [3] was 33%.
With CCCCCCCC/C=C\CCCCCCCC(=O)OCCN(CCOC(=O)CCCCCCC/C=C\CCCCCCCC)C(=O)CCC(=O)NCCCC[C@H](NC(=O)CCC(=O)N(CCOC(=O)CCCCCCC/C=C\CCCCCCCC)CCOC(=O)CCCCCCC/C=C\CCCCCCCC)C(=O)NCCCOCCOCCOCCOCCOCCCNC(=O)[C@H](CCCCNC(=O)CCC(=O)N(CCOC(=O)CCCCCCC/C=C\CCCCCCCC)CCOC(=O)CCCCCCC/C=C\CCCCCCCC)NC(=O)CCC(=O)N(CCOC(=O)CCCCCCC/C=C\CCCCCCCC)CCOC(=O)CCCCCCC/C=C\CCCCCCCC [Compound S7] the “% of Expression at Dose (nM) 18 nM” value [1] was 57%, the “% of Expression at Dose (nM) 75 nM” value [2] was 48% and the “% of Expression at Dose (nM) 300 nM” value [3] was 27%.
With CCCCCCCC/C=C\CCCCCCCC(=O)OCCN(CCOC(=O)CCCCCCC/C=C\CCCCCCCC)C(=O)CCC(=O)NCCCC[C@H](NC(=O)CCC(=O)N(CCOC(=O)CCCCCCC/C=C\CCCCCCCC)CCOC(=O)CCCCCCC/C=C\CCCCCCCC)C(=O)NCCCOCCOCCOCCCNC(=O)CCOCCOCCOCCOCCOCCC(=O)NCCCOCCOCCOCCCNC(=O)[C@H](CCCCNC(=O)CCC(=O)N(CCOC(=O)CCCCCCC/C=C\CCCCCCCC)CCOC(=O)CCCCCCC/C=C\CCCCCCCC)NC(=O)CCC(=O)N(CCOC(=O)CCCCCCC/C=C\CCCCCCCC)CCOC(=O)CCCCCCC/C=C\CCCCCCCC [Compound S8] the “% of Expression at Dose (nM) 18 nM” value [1] was 74%, the “% of Expression at Dose (nM) 75 nM” value [2] was 64% and the “% of Expression at Dose (nM) 300 nM” value [3] was 42%.
For CCCCCCCCCCCCCC(=O)OCCN(CCOC(=O)CCCCCCCCCCCCC)C(=O)CCC(=O)NCCCC[C@H](NC(=O)CCC(=O)N(CCOC(=O)CCCCCCCCCCCCC)CCOC(=O)CCCCCCCCCCCCC)C(=O)NCCCOCCOCCOCCCNC(=O)CCOCCOCCOCCOCCOCCC(=O)NCCCOCCOCCOCCCNC(=O)[C@H](CCCCNC(=O)CCC(=O)N(CCOC(=O)CCCCCCCCCCCCC)CCOC(=O)CCCCCCCCCCCCC)NC(=O)CCC(=O)N(CCOC(=O)CCCCCCCCCCCCC)CCOC(=O)CCCCCCCCCCCCC [Compound T1], the “% of Expression at Dose (nM) 18 nM” value [1] was 76%, the “% of Expression at Dose (nM) 75 nM” value [2] was 68% and the “% of Expression at Dose (nM) 300 nM” value [3] was 44%.
For CCCCCCCCCCCCCC(=O)OCCN(CCOC(=O)CCCCCCCCCCCCC)C(=O)CCC(=O)NCCCC[C@H](NC(=O)CCC(=O)N(CCOC(=O)CCCCCCCCCCCCC)CCOC(=O)CCCCCCCCCCCCC)C(=O)NCCCOCCOCCOCCOCCOCCCNC(=O)[C@H](CCCCNC(=O)CCC(=O)N(CCOC(=O)CCCCCCCCCCCCC)CCOC(=O)CCCCCCCCCCCCC)NC(=O)CCC(=O)N(CCOC(=O)CCCCCCCCCCCCC)CCOC(=O)CCCCCCCCCCCCC [Compound T2], the “% of Expression at Dose (nM) 18 nM” value [1] was 82%, the “% of Expression at Dose (nM) 75 nM” value [2] was 70% and the “% of Expression at Dose (nM) 300 nM” value [3] was 44%.
With CCCCC/C=C\C/C=C\CCCCCCCC(=O)OCCN(CCOC(=O)CCCCCCC/C=C\C/C=C\CCCCC)C(=O)CCC(=O)NCCCCC(NC(=O)CCC(=O)N(CCOC(=O)CCCCCCC/C=C\C/C=C\CCCCC)CCOC(=O)CCCCCCC/C=C\C/C=C\CCCCC)C(=O)NCCCOCCOCCOCCCNC(=O)C(CCCCNC(=O)CCC(=O)N(CCOC(=O)CCCCCCC/C=C\C/C=C\CCCCC)CCOC(=O)CCCCCCC/C=C\C/C=C\CCCCC)NC(=O)CCC(=O)N(CCOC(=O)CCCCCCC/C=C\C/C=C\CCCCC)CCOC(=O)CCCCCCC/C=C\C/C=C\CCCCC (stereo not drawn) [Compound T4] the “% of Expression at Dose (nM) 18 nM” value [1] was 82%, the “% of Expression at Dose (nM) 75 nM” value [2] was 70% and the “% of Expression at Dose (nM) 300 nM” value [3] was 44%. For the same molecule, the “% of Expression at Dose (nM) 18 nM” value [4] was 27%, the “% of Expression at Dose (nM) 75 nM” value [5] was 10% and the “% of Expression at Dose (nM) 300 nM” value [6] was 8%.
CCCCC/C=C\C/C=C\CCCCCCCC(=O)OCCN(CCOC(=O)CCCCCCC/C=C\C/C=C\CCCCC)C(=O)CCCC(=O)NCCCC[C@H](NC(=O)CCCC(=O)N(CCOC(=O)CCCCCCC/C=C\C/C=C\CCCCC)CCOC(=O)CCCCCCC/C=C\C/C=C\CCCCC)C(=O)NCCCOCCOCCOCCOCCOCCCNC(=O)[C@H](CCCCNC(=O)CCCC(=O)N(CCOC(=O)CCCCCCC/C=C\C/C=C\CCCCC)CCOC(=O)CCCCCCC/C=C\C/C=C\CCCCC)NC(=O)CCCC(=O)N(CCOC(=O)CCCCCCC/C=C\C/C=C\CCCCC)CCOC(=O)CCCCCCC/C=C\C/C=C\CCCCC [Compound T5] was tested, and the “% of Expression at Dose (nM) 18 nM” value [4] was 29%, the “% of Expression at Dose (nM) 75 nM” value [5] was 13% and the “% of Expression at Dose (nM) 300 nM” value [6] was 11%.
For CCCCC/C=C\C/C=C\CCCCCCCC(=O)OCCN(CCOC(=O)CCCCCCC/C=C\C/C=C\CCCCC)C(=O)CCC(=O)NCCC[C@H](NC(=O)CCC(=O)N(CCOC(=O)CCCCCCC/C=C\C/C=C\CCCCC)CCOC(=O)CCCCCCC/C=C\C/C=C\CCCCC)C(=O)NCCCOCCOCCOCCOCCOCCCNC(=O)[C@H](CCCNC(=O)CCC(=O)N(CCOC(=O)CCCCCCC/C=C\C/C=C\CCCCC)CCOC(=O)CCCCCCC/C=C\C/C=C\CCCCC)NC(=O)CCC(=O)N(CCOC(=O)CCCCCCC/C=C\C/C=C\CCCCC)CCOC(=O)CCCCCCC/C=C\C/C=C\CCCCC [Compound T6], the “% of Expression at Dose (nM) 18 nM” value [4] was 30%, the “% of Expression at Dose (nM) 75 nM” value [5] was 12% and the “% of Expression at Dose (nM) 300 nM” value [6] was 5%.
For CCCCC/C=C\C/C=C\CCCCCCCC(=O)OCCN(CCOC(=O)CCCCCCC/C=C\C/C=C\CCCCC)C(=O)CCC(=O)NC[C@H](NC(=O)CCC(=O)N(CCOC(=O)CCCCCCC/C=C\C/C=C\CCCCC)CCOC(=O)CCCCCCC/C=C\C/C=C\CCCCC)C(=O)NCCCOCCOCCOCCOCCOCCCNC(=O)[C@H](CNC(=O)CCC(=O)N(CCOC(=O)CCCCCCC/C=C\C/C=C\CCCCC)CCOC(=O)CCCCCCC/C=C\C/C=C\CCCCC)NC(=O)CCC(=O)N(CCOC(=O)CCCCCCC/C=C\C/C=C\CCCCC)CCOC(=O)CCCCCCC/C=C\C/C=C\CCCCC [Compound T7], the “% of Expression at Dose (nM) 18 nM” value [4] was 51%, the “% of Expression at Dose (nM) 75 nM” value [5] was 20% and the “% of Expression at Dose (nM) 300 nM” value [6] was 8%.
In the case of CC/C=C\C/C=C\C/C=C\CCCCCCCC(=O)OCCN(CCOC(=O)CCCCCCC/C=C\C/C=C\C/C=C\CC)C(=O)CCC(=O)NCCCC[C@H](NC(=O)CCC(=O)N(CCOC(=O)CCCCCCC/C=C\C/C=C\C/C=C\CC)CCOC(=O)CCCCCCC/C=C\C/C=C\C/C=C\CC)C(=O)NCCCOCCOCCOCCOCCOCCCNC(=O)[C@H](CCCCNC(=O)CCC(=O)N(CCOC(=O)CCCCCCC/C=C\C/C=C\C/C=C\CC)CCOC(=O)CCCCCCC/C=C\C/C=C\C/C=C\CC)NC(=O)CCC(=O)N(CCOC(=O)CCCCCCC/C=C\C/C=C\C/C=C\CC)CCOC(=O)CCCCCCC/C=C\C/C=C\C/C=C\CC [Compound T8], the “% of Expression at Dose (nM) 18 nM” value [4] is reported as 29%, the “% of Expression at Dose (nM) 75 nM” value [5] is reported as 9% and the “% of Expression at Dose (nM) 300 nM” value [6] is reported as 8%.
For CCC/C=C\C/C=C\CCCCCCCC(=O)OCCN(CCOC(=O)CCCCCCC/C=C\C/C=C\CCCCC)C(=O)CC[C@H](NC(=O)CCC(=O)NCCCOCCOCCOCCOCCOCCCNC(=O)CCC(=O)NC(CCC(=O)N(CCOC(=O)CCCCCCC/C=C\C/C=C\CCCCC)CCOC(=O)CCCCCCC/C=C\C/C=C\CCCCC)C(=O)N(CCOC(=O)CCCCCCC/C=C\C/C=C\CCC)CCOC(=O)CCCCCCC/C=C\C/C=C\CCCCC)C(=O)N(CCOC(=O)CCCCCCC/C=C\C/C=C\CCCCC)CCOC(=O)CCCCCCC/C=C\C/C=C\CCCCC (stereo partly drawn) [Compound T9], the “% of Expression at Dose (nM) 18 nM” value [4] was 100%, the “% of Expression at Dose (nM) 75 nM” value [5] was 65% and the “% of Expression at Dose (nM) 300 nM” value [6] was 36%.
In the case of CCCCC/C=C\C/C=C\CCCCCCCCOC(=O)[C@H]1C[C@H](NCC(=O)CCC(=O)NCCCCC(NC(=O)CCC(=O)N[C@H]2C[C@H](C(=O)OCCCCCCCC/C=C\C/C=C\CCCCC)N(C(=O)CCCCCCC/C=C\C/C=C\CCCCC)C2)C(=O)NCCCOCCOCCOCCOCCOCCCNC(=O)C(CCCCNC(=O)CCC(=O)N[C@@H]2C[C@@H](C(=O)OCCCCCCCC/C=C\C/C=C\CCCCC)N(C(=O)CCCCCCC/C=C\C/C=C\CCCCC)C2)NC(=O)CCC(=O)N[C@@H]2C[C@@H](C(=O)OCCCCCCCC/C=C\C/C=C\CCCCC)N(C(=O)CCCCCCC/C=C\C/C=C\CCCCC)C2)CN1C(=O)CCCCCCC/C=C\C/C=C\CCCCC (stereo partly drawn) [Compound T10], the “% of HSP47 expression in Stellate Cell, Conc siRNA 18 nM” value (Table 5, siRNA 18 nM, stellate cells) is reported as 11.1%, the “% of HSP47 expression in Stellate Cell, Conc siRNA 75 nM” value (Table 5, siRNA 75 nM, stellate cells) is reported as 4.2% and the “% of HSP47 expression in Stellate Cell, Conc siRNA 300 nM” value (Table 5, siRNA 300 nM, stellate cells) is reported as 1.9%.
